According to patent publication US20070128217A1 (priority 2003, published 2007):

How the values were obtained:
[1] = system: antibodies in sera from SARS patients (sera 1a, 1b, 2, 6, 37, 62, London, SARS-yellow, SARS-green); format: binding, human; design: Binding of serum 6 to linear peptides of protein X1 of SARS-CoV Urbani / Binding of serum 37 to linear peptides of protein X1 of SARS-CoV Urbani / Binding of serum 6 to looped/cyclic peptide (PEPSCAN-ELISA) / Binding of serum 37 to looped/cyclic peptide (PEPSCAN-ELISA) / Binding of serum 37 to looped/cyclic peptides of protein X1 of SARS-CoV Urbani / Binding of serum 6 to linear peptides of protein X2 / Binding of serum 37 to linear peptides of protein X2 / Binding of serum 37 to looped/cyclic peptides of protein X2 of SARS-CoV Urbani / Binding of serum 6 to linear peptides of protein M of SARS-CoV Urbani / Binding of serum 37 to linear peptides of protein M of SARS-CoV Urbani / Binding of serum 6 to looped/cyclic peptides of protein M of SARS-CoV Urbani / Binding of serum 37 to looped/cyclic peptides of protein M of SARS-CoV Urbani / Binding of serum 6 to linear peptides of protein X3 of SARS-CoV Urbani / Binding of serum 37 to linear peptides of protein X3 of SARS-CoV Urbani / Binding of serum 37 to looped/cyclic peptides of protein X3 of SARS-CoV Urbani / Binding of serum 6 to linear peptides of protein X4 of SARS-CoV Urbani / Binding of serum 37 to linear peptides of protein X4 of SARS-CoV Urbani / Binding of serum 37 to looped/cyclic peptides of protein X4 of SARS-CoV Urbani / Binding of serum 6 to linear peptides of protein X5 of SARS-CoV Urbani / Binding of serum 37 to linear peptides of protein X5 of SARS-CoV Urbani / Binding of serum 37 to looped/cyclic peptides of protein X5 of SARS-CoV Urbani / Binding of serum 6 to linear peptides of protein N of SARS-CoV Urbani / Binding of serum 37 to linear peptides of protein N of SARS-CoV Urbani / Binding of serum 6 to linear peptide (PEPSCAN-ELISA) / Binding of serum 1a to looped/cyclic peptides of protein N of SARS-CoV Urbani / Binding of serum 1b to looped/cyclic peptides of protein N of SARS-CoV Urbani / Binding of serum 2 to looped/cyclic peptides of protein N of SARS-CoV Urbani / Binding of serum 6 to looped/cyclic peptides of protein N of SARS-CoV Urbani / Binding of serum 37 to looped/cyclic peptides of protein N of SARS-CoV Urbani / Binding of serum 62 to looped/cyclic peptides of protein N of SARS-CoV Urbani / Binding of serum London to looped/cyclic peptides of protein N of SARS-CoV Urbani / Binding of serum SARS-green to looped/cyclic peptides of protein N of SARS-CoV Urbani: unit not given here
[2] = system: control sera (pooled serum of ten healthy LUMC hospital workers; commercial negative donor pooled serum from the Dutch bloodbank); format: binding, human; design: Binding of Control serum LUMC to linear peptides / Binding of Control serum Blood-bank to linear peptides / Binding of Control serum LUMC to looped peptides / Binding of Control Serum Blood-Bank to Looped peptides / Binding of Control serum LUMC to linear peptides of the protein M of SARS-CoV Urbani / Binding of Control serum Blood-bank to linear peptides of the protein M of SARS-CoV Urbani / Binding of Control serum LUMC to looped peptides of the protein M of SARS-CoV Urbani / Binding of Control Serum Blood-Bank to Looped peptides of the protein M of SARS-CoV Urbani: unit not given here
[3] = system: rabbit serum obtained by immunizing a rabbit with the SARS-CoV strain Frankfurt 1; format: binding; design: Binding of a rabbit serum to linear peptides / Binding of a rabbit serum to looped peptides / Rabbit serum linear peptides / Rabbit serum looped peptides / Binding of a rabbit serum to linear peptides of protein N of SARS-CoV Urbani (Rabbit serum linear peptides) / Binding of a rabbit serum to looped/cyclic peptides of protein N of SARS-CoV Urbani (Rabbit serum looped peptides): unit not given here

Q: What does the source list for AWLCALGKVLPFHRW?
A: Binding of serum 1a to linear peptides of protein X5 of SARS-CoV Urbani [1]: 0.8; Binding of serum 1a to looped/cyclic peptides of protein X5 of SARS-CoV Urbani [1]: 0.4; Binding of serum 1b to linear peptides of protein X5 of SARS-CoV Urbani [1]: 0.6; Binding of serum 1b to looped/cyclic peptides of protein X5 of SARS-CoV Urbani [1]: 0.3; Binding of serum 2 to linear peptides of protein X5 of SARS-CoV Urbani [1]: 0.8; Binding of serum 2 to looped/cyclic peptides of protein X5 of SARS-CoV Urbani [1]: 0.5; Binding of serum 6 to linear peptides of protein X5 of SARS-CoV Urbani [1]: 0.6; Binding of serum 6 to looped/cyclic peptides of protein X5 of SARS-CoV Urbani [1]: 0.4; Binding of serum 37 to linear peptides of protein X5 of SARS-CoV Urbani [1]: 0.8; Binding of serum 37 to looped/cyclic peptides of protein X5 of SARS-CoV Urbani [1]: 0.5; Binding of serum 62 to linear peptides of protein X5 of SARS-CoV Urbani [1]: 0.9; Binding of serum 62 to looped/cyclic peptides of protein X5 of SARS-CoV Urbani [1]: 0.7; Binding of serum London to linear peptides of protein X5 of SARS-CoV Urbani [1]: 0.8; Binding of serum London to looped/cyclic peptides of protein X5 of SARS-CoV Urbani [1]: 0.2; Binding of serum SARS-green to linear peptides of protein X5 of SARS-CoV Urbani [1]: 0.6; Binding of serum SARS-green to looped/cyclic peptides of protein X5 of SARS-CoV Urbani [1]: 0.5; Binding of serum SARS-yellow to linear peptides of protein X5 of SARS-CoV Urbani [1]: 0.2; Binding of serum SARS-yellow to looped/cyclic peptides of protein X5 of SARS-CoV Urbani [1]: 0.5; Binding of Control Serum Blood-Bank to Looped peptides [2]: 0.4; Binding of Control serum Blood-bank to linear peptides [2]: 0.9; Binding of Control serum LUMC to linear peptides [2]: 0.6; Binding of Control serum LUMC to looped peptides [2]: 0.5; Rabbit serum linear peptides [3]: 0.8; Rabbit serum looped peptides [3]: 0.6

Q: How did the “Binding of serum 1a to linear peptides of protein M of SARS-CoV Urbani” value [1] turn out when AYNRYRIGNYKLNTD was run?
A: 0.7

Q: And the “Binding of serum 1a to looped/cyclic peptides of protein M of SARS-CoV Urbani” value [1]?
A: 0.8

Q: And the “Binding of serum 1b to linear peptides of protein M of SARS-CoV Urbani” value [1]?
A: 0.2

Q: What about the “Binding of serum 1b to looped/cyclic peptides of protein M of SARS-CoV Urbani” value [1] of the same sequence?
A: 0.7

Q: What about the “Binding of serum 2 to linear peptides of protein M of SARS-CoV Urbani” value [1] of the same sequence?
A: 0.3

Q: What about the “Binding of serum 2 to looped/cyclic peptides of protein M of SARS-CoV Urbani” value [1] of the same sequence?
A: 0.5

Q: What about the “Binding of serum 6 to linear peptides of protein M of SARS-CoV Urbani” value [1] of the same sequence?
A: 0.4

Q: What about the “Binding of serum 6 to looped/cyclic peptides of protein M of SARS-CoV Urbani” value [1] of the same sequence?
A: 1.0

Q: And the “Binding of serum 37 to linear peptides of protein M of SARS-CoV Urbani” value [1]?
A: 0.5

Q: What about the “Binding of serum 37 to looped/cyclic peptides of protein M of SARS-CoV Urbani” value [1] of the same sequence?
A: 0.6

Q: What about the “Binding of serum 62 to linear peptides of protein M of SARS-CoV Urbani” value [1] of the same sequence?
A: 0.7

Q: And the “Binding of serum 62 to looped/cyclic peptides of protein M of SARS-CoV Urbani” value [1]?
A: 0.6

Q: And the “Binding of serum London to linear peptides of protein M of SARS-CoV Urbani” value [1]?
A: 0.5

Q: And the “Binding of serum London to looped/cyclic peptides of protein M of SARS-CoV Urbani” value [1]?
A: 0.4

Q: And the “Binding of serum SARS-green to linear peptides of protein M of SARS-CoV Urbani” value [1]?
A: 0.2

Q: And the “Binding of serum SARS-green to looped/cyclic peptides of protein M of SARS-CoV Urbani” value [1]?
A: 0.2

Q: And the “Binding of serum SARS-yellow to linear peptides of protein M of SARS-CoV Urbani” value [1]?
A: 0.0

Q: What about the “Binding of serum SARS-yellow to looped/cyclic peptides of protein M of SARS-CoV Urbani” value [1] of the same sequence?
A: 0.6

Q: And the “Binding of Control Serum Blood-Bank to Looped peptides of the protein M of SARS-CoV Urbani” value [2]?
A: 0.6

Q: And the “Binding of Control serum Blood-bank to linear peptides of the protein M of SARS-CoV Urbani” value [2]?
A: 0.6

Q: What about the “Binding of Control serum LUMC to linear peptides of the protein M of SARS-CoV Urbani” value [2] of the same sequence?
A: 0.3

Q: What about the “Binding of Control serum LUMC to looped peptides of the protein M of SARS-CoV Urbani” value [2] of the same sequence?
A: 0.7

Q: What about the “Rabbit serum linear peptides” value [3] of the same sequence?
A: 0.3

Q: And the “Rabbit serum looped peptides” value [3]?
A: 0.3

Q: Which “Binding of serum 1a to linear peptides of protein M of SARS-CoV Urbani” value [1] does the source give for AYSNRNRFLYIIKLV here?
A: 0.7

Q: What about the “Binding of serum 1b to linear peptides of protein M of SARS-CoV Urbani” value [1] of the same sequence?
A: 0.6

Q: And the “Binding of serum 2 to linear peptides of protein M of SARS-CoV Urbani” value [1]?
A: 0.6

Q: What about the “Binding of serum 6 to linear peptides of protein M of SARS-CoV Urbani” value [1] of the same sequence?
A: 0.6

Q: And the “Binding of serum 37 to linear peptides of protein M of SARS-CoV Urbani” value [1]?
A: 0.4

Q: What about the “Binding of serum 62 to linear peptides of protein M of SARS-CoV Urbani” value [1] of the same sequence?
A: 0.5

Q: And the “Binding of serum London to linear peptides of protein M of SARS-CoV Urbani” value [1]?
A: 0.3

Q: And the “Binding of serum SARS-green to linear peptides of protein M of SARS-CoV Urbani” value [1]?
A: 0.5

Q: What about the “Binding of serum SARS-yellow to linear peptides of protein M of SARS-CoV Urbani” value [1] of the same sequence?
A: 0.2

Q: What about the “Recognition of the peptide by sera of SARS-CoV infected individuals, and form (linear, looped/cyclic) in which it is recognized” value [1] of the same sequence?
A: recognized in looped/cyclic form

Q: What about the “Binding of Control Serum Blood-Bank to Looped peptides of the protein M of SARS-CoV Urbani” value [2] of the same sequence?
A: 0.6

Q: And the “Binding of Control serum Blood-bank to linear peptides of the protein M of SARS-CoV Urbani” value [2]?
A: 0.7

Q: And the “Binding of Control serum LUMC to linear peptides of the protein M of SARS-CoV Urbani” value [2]?
A: 0.7

Q: And the “Binding of Control serum LUMC to looped peptides of the protein M of SARS-CoV Urbani” value [2]?
A: 0.8

Q: And the “Rabbit serum linear peptides” value [3]?
A: 0.3

Q: What about the “Rabbit serum looped peptides” value [3] of the same sequence?
A: 0.5
